# From patent publication US6716987B1, “Derivatives of benzofuran or benzodioxazole compounds” (Kyowa Hakko Kogyo Co., Ltd., priority 1995, dated 2004)
# Tests used:
# [1] = system: cAMP-specific phosphodiesterase (PDE IV); assay: Inhibition of the PDE IV enzyme derived from a dog trachea; assay type: biochemical; conditions: test compound 10^−6 M; PDE IV from dog tracheal smooth muscle; substrate cAMP 1 μM
# Outline: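 Enzyme purified from dog tracheal smooth muscle; [3H]cAMP substrate at 1 μM final in 50 mM BES pH 7.2, 1 mM MgCl2, 0.1 mg/ml soybean trypsin inhibitor, 30° C for 10–30 min, 1.7% DMSO final. After HCl stop, product converted to adenosine by 5′-nucleotidase, separated on DEAE-Sephadex and scintillation-counted.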
# phosphodiesterase 4A = molecular target: T1, phosphodiesterase 4A (Homo sapiens, UniProt P27815); assay: Recombinant human PDE4A assay; assay type: biochemical; conditions: for inhibition at 0.1 µM: 10^−7 M, read-out: Enzyme Inhibitory Activity (%, 10^−7 M)
# T1 construct: made in house; host or cells: E. coli
# T1 sequence (P27815 224-886 limits assumed): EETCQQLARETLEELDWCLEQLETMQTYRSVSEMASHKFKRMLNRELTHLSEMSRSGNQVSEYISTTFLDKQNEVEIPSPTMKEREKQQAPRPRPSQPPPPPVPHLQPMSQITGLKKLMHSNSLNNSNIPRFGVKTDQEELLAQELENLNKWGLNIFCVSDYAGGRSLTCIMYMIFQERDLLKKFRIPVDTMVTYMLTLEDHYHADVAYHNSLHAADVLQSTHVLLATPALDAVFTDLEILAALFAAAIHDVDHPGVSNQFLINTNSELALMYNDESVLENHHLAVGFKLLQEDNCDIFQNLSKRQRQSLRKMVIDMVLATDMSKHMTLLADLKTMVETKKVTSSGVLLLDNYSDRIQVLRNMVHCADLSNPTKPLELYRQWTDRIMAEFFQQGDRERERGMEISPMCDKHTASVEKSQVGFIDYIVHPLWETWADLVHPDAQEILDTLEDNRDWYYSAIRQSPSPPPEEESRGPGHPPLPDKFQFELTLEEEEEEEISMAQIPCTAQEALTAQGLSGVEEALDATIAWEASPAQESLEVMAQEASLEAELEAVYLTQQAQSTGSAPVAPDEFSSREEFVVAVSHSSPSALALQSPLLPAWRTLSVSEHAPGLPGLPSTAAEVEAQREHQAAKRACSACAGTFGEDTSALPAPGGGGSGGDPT
SMILES,"Enzyme Inhibitory Activity (%, 10^−6 M) [1] [%]",melting point [°C],"Enzyme Inhibitory Activity (%, 10^−7 M) (phosphodiesterase 4A) [%]",inhibition at 0.1 µM (phosphodiesterase 4A) [%]
"COc1ccc(C(=O)Nc2c(Cl)cncc2Cl)c2c1OCC2CC(=O)Nc1c(Cl)cncc1Cl (racemic) [Compound 32, (±)-4-[(3,5-Dichloro-4-pyridyl)aminocarbonyl]-3-[(3,5-dichloro-4-pyridyl)aminocarbonyl]methyl-7-methoxy-2,3-dihydrobenzofuran]",81,> 300,–,–
"COc1ccc(CSc2ccncc2)c2c1OCC2C (racemic) [Compound 59, (±)-7-Methoxy-3-methyl-4-(4-pyridylthiomethyl)-2,3-dihydrobenzofuran]",24,110 to 112,–,–
"COc1ccc(C(Sc2ccncc2)c2ccccc2)c2c1OCC2C (racemic) [Compound 60A, (±)-7-Methoxy-3-methyl-4-[1-phenyl-1-(4-pyridylthio)-methyl]-2,3-dihydrobenzofuran]",15,59 to 62,–,–
"COc1ccc(C(Sc2ccncc2)c2ccccc2)c2c1OCC2C (racemic) [Compound 60B, (±)-7-Methoxy-3-methyl-4-[1-phenyl-1-(4-pyridylthio)-methyl]-2,3-dihydrobenzofuran]",4,84 to 85,–,–
"COc1ccc(C(C#N)Cc2c(Cl)cncc2Cl)c2c1OC(C)(C)C2 (racemic) [Compound 63, (±)-4-[1-Cyano-2-(3,5-dichloro-4-pyridyl)ethyl]-2,2-dimethyl-7-methoxy-2,3-dihydrobenzofuran]",85,158 to 162,–,–
"COc1ccc(C(=Cc2ccncc2)c2ccccc2)c2c1OCC2C (racemic) [Compound 80, (±)-7-Methoxy-3-methyl-4-[1-phenyl-2-(4-pyridyl)ethenyl]-2,3-dihydrobenzofuran]",17,103 to 105.5,–,–
"COc1ccc(C(=O)Cc2c(Cl)cncc2Cl)c2c1OCC2C (racemic) [Compound 103, (±)-4-[2-(3,5-Dichloro-4-pyridyl)-1-oxoethyl]-7-methoxy-3-methyl-2,3-dihydrobenzofuran]",88,99 to 104,–,–
"COc1ccc(C(=O)Cc2ccncc2)c2c1OCC2C (racemic) [Compound 104, (±)-7-Methoxy-3-methyl-4-[1-oxo-2-(4-pyridyl)ethyl]-2,3-dihydrobenzofuran]",48,111 to 117,–,–
COc1ccc(C(=O)Nc2c(Cl)cncc2Cl)c2cc(C(=O)c3ccccc3)oc12 [Compound 35],–,–,100,–
"CCCCc1cc2c(C(=O)Nc3c(Cl)cncc3Cl)ccc(OC)c2o1 [Compound 36, 2-Butyl-4-(3,5-dichloropyridin-4-ylaminocarbonyl)-7-methoxybenzofuran]",87,160 to 164,–,–
"COc1ccc(C(=O)Nc2c(Cl)cncc2Cl)c2cc(-c3ccncc3)oc12 [Compound 38, 4-[(3,5-Dichloro-4-pyridyl)aminocarbonyl]-7-methoxy-2-(4-pyridyl)benzofuran]",89,289 to 290,–,–
"COc1ccc(C(=O)Nc2c(Cl)cncc2Cl)c2cc(-c3ccccn3)oc12 [Compound 40, 4-[(3,5-Dichloro-4-pyridyl)aminocarbonyl]-7-methoxy-2-(2-pyridyl)benzofuran]",89,263 to 264,–,–
"COc1ccc(C(=O)Nc2c(Cl)cncc2Cl)c2c(-c3ccccc3)coc12 [Compound 42, 4-[(3,5-Dichloro-4-pyridyl)aminocarbonyl]-7-methoxy-3-phenylbenzofuran]",73,177 to 179,–,–
"CCOC(=O)Cc1coc2c(OC)ccc(C(=O)Nc3c(Cl)cncc3Cl)c12 [Compound 43, 3-Ethoxycarbonylmethyl-4-[(3,5-dichloro-4-pyridyl)-aminocarbonyl]-7-methoxybenzofuran]",62,216 to 218,–,–
"COc1ccc(CCc2c(Cl)cncc2Cl)c2c1OC(C)(C)C2 [Compound 45, 4-[2-(3,5-Dichloro-4-pyridyl)ethyl]-7-methoxy-2,2-dimethyl-2,3-dihydrobenzofuran]",74,128 to 133,–,–
"COc1ccc(CSc2ccncc2)c2c1OC(C)(C)C2 [Compound 48, 7-Methoxy-2,2-dimethyl-4-(4-pyridylthiomethyl)-2,3-dihydrobenzofuran]",41,109 to 113,–,–

SMILES,"Enzyme Inhibitory Activity (%, 10^−6 M) [1] [%]",melting point [°C],"Enzyme Inhibitory Activity (%, 10^−7 M) (phosphodiesterase 4A) [%]",inhibition at 0.1 µM (phosphodiesterase 4A) [%]
"CCOC(=O)/C(=C/c1ccc(OC)c2c1CC(C)(C)O2)c1ccncc1 [Compound 87, (E)-4-[2-Ethoxycarbonyl-2-(4-pyridyl)ethenyl]-7-methoxy-2,2-dimethyl-2,3-dihydrobenzofuran]",61,98 to 100,–,–
"CCOC(=O)C(C#N)=Cc1ccc(OC)c2c1CC(C)(C)O2 [Compound 89, 4-(2-Cyano-2-ethoxycarbonylethenyl)-7-methoxy-2,2-dimethyl-2,3-dihydrobenzofuran]",33,112 to 117,–,–
"CCC1(CC)Cc2c(C(=O)Cc3c(Cl)cncc3Cl)ccc(OC)c2O1 [Compound 97, 4-[2-(3,5-Dichloro-4-pyridyl)-1-oxoethyl]-2,2-diethyl-7-methoxy-2,3-dihydrobenzofuran]",92,164 to 166,–,–
"COc1ccc(C(=O)Cc2c(Cl)cncc2Cl)c2c1OC1(CCCC1)C2 [Compound 99, 4-[2-(3,5-Dichloro-4-pyridyl)-1-oxoethyl]-7-methoxy-spiro[2,3-dihydrobenzofuran-2,1′-cyclopentane]]",91,159 to 162,–,–
"COc1ccc(C(=O)Cc2ccncc2)c2c1OC1(CCCCC1)C2.Cl [Compound 102, 7-Methoxy-4-[1-oxo-2-(4-pyridyl)ethyl]-spiro[2,3-dihydrobenzofuran-2,1′-cyclohexane].hydrochloride]",–,–,95,–
"COc1ccc(C(=O)Cc2c(Cl)cncc2Cl)c2cc(-c3ccncc3)oc12.Cl.Cl [Compound 114, 4-[2-(3,5-Dichloro-4-pyridyl)-1-oxoethyl]-7-methoxy-2-(4-pyridyl)benzofuran.2 hydrochloride]",–,–,100,–
"COc1ccc(C(=O)Nc2c(Cl)cncc2Cl)c2c1OC(C)(C)C=C2 [Compound 121, 5-(3,5-Dichloro-4-pyridylaminocarbonyl)-8-methoxy-2,2-dimethylbenzopyran]",85,174 to 178,–,–
"COc1ccc(C(=O)Nc2c(Cl)cncc2Cl)c2c1OC(C)(C)CC2 [Compound 122, 5-(3,5-Dichloro-4-pyridylaminocarbonyl)-8-methoxy-2,2-dimethyl-3,4-dihydrobenzopyran]",92,155 to 156,–,–
"COc1ccc(C=Cc2c(Cl)cncc2Cl)c2c1CC1(CCCC1)O2 [Compound 131, 7-[2-(3,5-Dichloro-4-pyridyl)ethenyl]-4-methoxy-spiro[2,3-dihydrobenzofuran-2,1′-cyclopentane]]",51,99 to 101,–,–
"COc1ccc(C(=O)Cc2c(Cl)cncc2Cl)c2c1CC1(CCCC1)O2 [Compound 132, 7-[2-(3,5-Dichloro-4-pyridyl)-1-oxoethyl]-4-methoxy-spiro[2,3-dihydrobenzofuran-2,1′-cyclopentane]]",66,70 to 72,–,–
"COc1ccc(C(=O)Cc2c(Cl)cncc2Cl)c2c1OC1(CCCC1)O2 [Compound 140, 7-[2-(3,5-Dichloro-4-pyridyl)-1-oxoethyl]-4-methoxy-spiro[1,3-benzodioxole-2,1′-cyclopentane]]",–,–,–,100
"COc1ccc(C(=O)Cc2ccncc2)c2c1OC1(CCCC1)O2.Cl [Compound 141, 4-Methoxy-7-[1-oxo-2-(4-pyridyl)ethyl]-spiro[1,3-benzodioxole-2,1′-cyclopentane].hydrochloride]",–,–,76,–
"COc1ccc(C#Cc2ccncc2)c2c1OC1(CCCC1)C2 [Compound 142, 7-Methoxy-4-[2-(4-pyridyl)ethynyl]-spiro[2,3-dihydrobenzofuran-2,1′-cyclopentane]]",76,128 to 131,–,–
"COc1ccc(C(=O)Cc2c(Cl)cncc2Cl)c2c(CC(=O)NCc3ccccn3)coc12.Cl.Cl [Compound 157, 4-[2-(3,5-Dichloro-4-pyridyl)-1-oxoethyl]-7-methoxy-3-[(2-pyridylmethyl)aminocarbonylmethyl]benzofuran.2 hydrochloride]",–,–,89,–
"CCOC(=O)c1coc2c(OC)ccc(C(=O)Cc3c(Cl)cncc3Cl)c12 [Compound 159, Ethyl 4-[2-(3,5-dichloro-4-pyridyl)-1-oxoethyl]-7-methoxybenzofuran-3-carboxylate]",–,–,–,99
